Data on twelve compounds can be found in US5475034A, “Topically administrable compositions containing 3-benzoylphenylacetic acid derivatives for treatment of ophthalmic inflammatory disorders” (Alcon Laboratories, Inc., priority 1994, dated 1995).

Assay [1] concerns the target T1, prostaglandin H synthase (cyclooxygenase) (Ovis aries, UniProt P05979).
T1 construct: sheep vesicular gland microsomal powder; from tissue; host or cells: sheep vesicular gland (lipid-depleted microsomal powder, solubilized)
T1 sequence (P05979 25-600): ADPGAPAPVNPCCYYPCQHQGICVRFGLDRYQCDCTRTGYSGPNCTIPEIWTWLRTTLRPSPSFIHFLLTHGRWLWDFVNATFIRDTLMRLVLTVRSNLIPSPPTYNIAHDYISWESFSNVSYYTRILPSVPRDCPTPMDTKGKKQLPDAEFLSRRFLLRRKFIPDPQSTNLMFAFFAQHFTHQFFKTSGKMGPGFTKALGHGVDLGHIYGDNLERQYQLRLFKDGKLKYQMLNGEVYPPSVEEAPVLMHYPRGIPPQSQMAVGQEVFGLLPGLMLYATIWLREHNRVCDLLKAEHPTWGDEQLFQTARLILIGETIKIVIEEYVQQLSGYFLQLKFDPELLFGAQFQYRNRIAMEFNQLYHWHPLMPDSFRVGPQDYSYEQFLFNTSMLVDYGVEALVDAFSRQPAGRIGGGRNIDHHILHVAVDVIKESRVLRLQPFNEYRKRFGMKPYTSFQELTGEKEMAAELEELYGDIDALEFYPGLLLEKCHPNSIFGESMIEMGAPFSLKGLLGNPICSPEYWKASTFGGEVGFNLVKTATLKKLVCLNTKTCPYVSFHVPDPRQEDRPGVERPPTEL
The experiment in a line: In vitro inhibition of cyclooxygenase (polarographic oxygen consumption, conversion of arachidonic acid to prostaglandin H2). It is filed as biochemical, sheep. To be noted: for IC50: sheep vesicular gland microsomal enzyme, pH 7.4, 30° C.; for less effective inhibitors of cyclooxygenase activity in vitro: versus free carboxylic acid analogues. On the procedure: In vitro anti-inflammatory activity of 2-amino-3-benzoylbenzeneacetic acid analogues was tested by polarographically monitoring the inhibition in the rate of oxygen consumption (Cook H. W., Ford G., and Lands WEM, Anal. Biochem. 96:341, 1979) in the conversion of arachidonic acid to prostaglandin H2 by prostaglandin H synthase (cyclooxygenase). Cyclooxygenase enzyme was prepared by solubilizing 20 mg of lipid-depletedsheep vesicular gland microsomal powder (Graff G., Stephenson J. H., et al., J. Biol. Chem. 253:7662, 1978) in 1.0 mL of buffer containing 50 mM phosphate, 5 mM diethyldithiocarbamic acid, and 2 μM hematin (pH 7.4). Incubations were carried out at 30° C. with a YSI-oxygen monitor (Model 53) in 50 mM phosphate/0.5 mM phenol buffer (pH 7.4) as described elsewhere (Graff G., and Anderson L. A., Prostaglandins 38:473, 1989).

Assay [2] deals with trauma-induced breakdown of the blood-aqueous-barrier. Put plainly: In vivo trauma-induced (paracentesis) breakdown of the blood-aqueous-barrier: aqueous humor PGE2 and protein. Details: species or system New Zealand Albino (NZA) rabbits. To be noted: for inhibition in vivo at 0.1 %: Oryctolagus cuniculus, 0.5 h, read-out: In Vivo Paracentesis Protein Extravasation Inhibition. Here is the method:
In vivo anti-inflammatory activity of 2-amino-3-benzoylbenzeneacetic acid analogues was evaluated in the model of trauma-induced breakdown of the blood-aqueous-barrier in New Zealand Albino (NZA) rabbits. Animals were anesthetized prior to bilateral administration of a single topical 50 μL dose of a 0.1% solution/suspension of formulated test or reference compound. After 45 minutes of treatment ocular trauma was induced by paracentesis.

Assay [3] deals with iris/ciliary body prostaglandin synthesis. The experiment in a line: Ex vivo inhibition of iris/ciliary body prostaglandin synthesis after topical dosing. It is filed as in vivo, New Zealand Albino (NZA) rabbits. To be noted: for inhibition in vivo at 0.1 %: Oryctolagus cuniculus, 1 h, single topical dose of 0.1% drug solution/suspension 60 minutes prior to iris/ciliary body isolation, read-out: Ex Vivo Iris/Ciliary Body Total Prostaglandin Synthesis Inhibition. Here is the method: Ex vivo anti-inflammatory activity of 2-amino-3-benzoylbenzeneacetic acid analogues was evaluated in naive New Zealand Albino (NZA) rabbits. In this test animals were dosed bilaterally with a single 50 μL aliquot of a 0.1% solution/suspension of vehicle, formulated test or reference compound. After 60 minutes of treatment, animals were euthanized, iris/ciliary body (ICB) quickly excised and placed into ice-cold PBS buffer (pH 7.4). The tissue was then weighed, homogenized in ice-cold 50 mM phosphate/0.5 mM phenol buffer (pH 7.4) and incubated for 10 minutes at 37° C. with 10 μM of [1-^14 C]-20:4.

Setting [4] is: single topical dose of 0.1% drug solution/suspension 45 minutes prior to paracentesis, plasma protein influx into aqueous humor.
Where [5] appears, read: single topical dose of 0.1% drug solution/suspension 45 minutes prior to paracentesis.

Structures are written as SMILES. Read-outs that look alike come from different tables or passages of the source.

One may read the IC50 as the concentration that gives 50% inhibition. High values mean lower potency, low ones higher potency. In the case of `CN(C)C(=O)Cc1cccc(C(=O)c2ccc(Br)cc2)c1N` [4'-Br N(CH3)2, reference compound], in assay [1], the “in vitro cyclooxygenase inhibition, result in words” value was “inactive” and the IC50 is more than 100 µM. The “in vivo anti-inflammatory activity, result in words” value in assay [2] is “inactive”. For the same compound, the inhibition in vivo at 0.1 % in assay [2] (setting [4]) is 2%. In assay [2] (setting [5]), the “In Vivo Aqueous Humor PGE2 Accumulation Inhibition” value is on record as -27%.
Turning to `Nc1c(CC(=O)O)cccc1C(=O)c1ccc(Cl)cc1` [4'-Cl OH, 2-amino-3-(4-chloro-benzoyl)benzeneacetic acid, reference compound], the IC50 in assay [1] is 0.07 µM. Also, the inhibition in vivo at 0.1 % in assay [2] (setting [4]) came to 72%. In addition, the “In Vivo Aqueous Humor PGE2 Accumulation Inhibition” value in assay [2] (setting [5]) is on record as 99%.
In the case of `Nc1c(CC(=O)O)cccc1C(=O)c1ccc(F)cc1` [4'-F OH, reference compound], inhibition in assay [1] was half-maximal at 0.171 µM (IC50). The inhibition in vivo at 0.1 % in assay [2] (setting [4]) was 42%.
The compound `Nc1c(CC(=O)O)cccc1C(=O)c1ccccc1` [Amfenac, 2-amino-3-benzoylbenzeneacetic acid, reference compound] had an IC50 in assay [1] of 0.25 µM. For the same compound, the inhibition in vivo at 0.1 % in assay [2] (setting [4]) turned out to be 41%.
In turn, `Nc1c(CC(=O)O)cccc1C(=O)c1ccc(Br)cc1` [Bromfenac, reference compound] came in with an IC50 in assay [1] of 0.029 µM. The inhibition in vivo at 0.1 % was determined as 44% in assay [3] and 62% in assay [2] (setting [4]). In assay [2] (setting [5]), the “In Vivo Aqueous Humor PGE2 Accumulation Inhibition” value amounted to 98%.
With `NC(=O)Cc1cccc(C(=O)c2ccc(F)cc2)c1N` [Compound 7, 2-Amino-3-(4-fluorobenzoyl)-phenylacetamide], in assay [1], half-maximal inhibition (IC50) required 133 µM and the “less effective inhibitors of cyclooxygenase activity in vitro” value (shortened to “less effective inhibitors”) is reported as ≥ 3 orders of magnitude. Moreover, the inhibition in vivo at 0.1 % in assay [3] was 27%. Also, the inhibition in vivo at 0.1 % in assay [2] (setting [4]) is 72%. Further, in assay [2] (setting [5]), the “In Vivo Aqueous Humor PGE2 Accumulation Inhibition” value came out at 98%.
As to `NC(=O)Cc1cccc(C(=O)c2ccccc2)c1N` [Compound 8, 2-Amino-3-benzoyl-phenylacetamide], in assay [1], the IC50 was 64 µM and the “less effective inhibitors” value is recorded as ≥ 3 orders of magnitude. Further, the inhibition in vivo at 0.1 % in assay [3] stood at 81%. The “spectrum of inhibition of iris/ciliary body prostaglandins” value in assay [3] (individual prostaglandins) was “inhibited to a similar extent”. Moreover, in assay [3] (rabbit, in vivo), the “ex vivo iris/ciliary body prostaglandin synthesis inhibition, result in words” value is reported as “most effective inhibitor”. In addition, in assay [2] (setting [4]), the inhibition in vivo at 0.1 % amounted to 61%. Moreover, in assay [2] (setting [5]), the “In Vivo Aqueous Humor PGE2 Accumulation Inhibition” value came to 98%.
Regarding `NC(=O)Cc1cccc(C(=O)c2ccc(Cl)cc2)c1N` [Compound 9, 2-Amino-3-(4-chlorobenzoyl)-phenylacetamide], the IC50 in assay [1] is more than 100 µM. The “less effective inhibitors” value in assay [1] was ≥ 3 orders of magnitude. Further, the inhibition in vivo at 0.1 % in assay [3] worked out at 29%; in assay [2] (setting [4]), 65%. For the same compound, in assay [2] (setting [5]), the “In Vivo Aqueous Humor PGE2 Accumulation Inhibition” value came out at 98%.
Regarding `CCOC(=O)Cc1cccc(C(=O)c2ccc(Br)cc2)c1N` [Compound 14, Ethyl-2-Amino-3-(4-bromobenzoyl)benzene acetate], the IC50 in assay [1] was more than 25 µM. The inhibition in vivo at 0.1 % turned out to be 33% in assay [3] and 60% in assay [2] (setting [4]).
Turning to `NC(=O)Cc1cccc(C(=O)c2ccc(Br)cc2)c1N` [Compound 15, 2-Amino-3-(4-bromobenzoyl)-phenylacetamide], in assay [1], half-maximal inhibition (IC50) was put at 19 µM and the “less effective inhibitors” value is recorded as ≥ 3 orders of magnitude. Moreover, the inhibition in vivo at 0.1 % in assay [3] was 23%. Further, the inhibition in vivo at 0.1 % in assay [2] (setting [4]) was found to be 64%. Moreover, the “In Vivo Aqueous Humor PGE2 Accumulation Inhibition” value in assay [2] (setting [5]) came out at 97%.
On the same counts, the results for `CNC(=O)Cc1cccc(C(=O)c2ccc(Br)cc2)c1N` [Compound 16, 2-Amino-3-(4-bromobenzoyl)-N-methyl phenylacetamide] are 16 µM, ≥ 3 orders of magnitude, 48%, 62% and 93%.
Take `O=C(O)Cc1ccccc1Nc1c(Cl)cccc1Cl` [Diclofenac, reference compound]: the “in vitro cyclooxygenase inhibition, result in words” value in assay [1] is “somewhat less effective”. For the same compound, the inhibition in vivo at 0.1 % was found to be 50% in assay [3] and 54% in assay [2]. For the same compound, the “in vivo anti-inflammatory activity, result in words” value in assay [2] (plasma protein influx and aqueous humor PGE2 accumulation) is reported as “somewhat less effective”. Further, in assay [2] (setting [5]), the “In Vivo Aqueous Humor PGE2 Accumulation Inhibition” value came out at 97%.
